Results on 3 compounds are retold here after article PMC11887451, “Leveraging Immunogenic Cell Death to Enhance the Immune Response against Malignant Pleural Mesothelioma Tumors” (Journal of the American Chemical Society, 2025).

Molecules are shown by their SMILES.

Data set [1] relates to AB12 cells in BALB/c mice. Put plainly: In vivo vaccination model. Details: species or system mouse. To be noted: within the first 30 days after vaccination, n = 8.
A short description of data set [2]: Aqueous stability by RP-HPLC in 1:1 DMSO:H2O over 72 h. It counts as physicochemical. To be noted: room temperature. As for the experimental part:
The aqueous stability of the Au(III)–DTC complexes was assessed by monitoring their RP-HPLC profiles in a 1:1 DMSO:H2O mixture at room temperature over a 3-day period (Supplementary Figures 112–146).
Determination of the purity of cyclometalated Au( III) complexes was performed using analytical HPLC on a Shimadzu Prominence System equipped with a DGU -20A3 Degasser, two LC-20AD Liquid Chromatography Pump, a SPD-20A UV/Vis Detector and a Shim Pack GVP-ODS 2.0 mm 18 column ([…], 120Å, 250 mm × 4.60 mm i.d.). The analysis was conducted at r.t. with a flow rate of 1.0 mL/min and detection at 254 and 280 nm. Mobile phase A was H2O + 0.1% Trifluoroacetic acid (TFA) while mobile phase B is ACN + 0.1% TFA. The gradient program parameters were as follows: mobil e phase B was increased from 30 to 95% over 30 min. 95% mobile phase B was maintained for 10 min, 95 to 30% over 5 min, and finally returned to 30% for 10 min for the next analysis. LogP values of the complexes were calculated based on the HPLC retention times derived from the calibration standard curve. The calibration standard curve was established using 2-butanone, phenylacetonitrile, anisole, ethyl benzoate, benzophenone, diphenyl ether and triphenylamine. To conduct an aqueous stability study, the HPLC profiles of the sample stock solutions were diluted to a 1:1 ratio of DMSO to […]
water. […]

In data set [3] the test system is murine malignant mesothelioma cell line AB12. Put plainly: MTT cytotoxicity assay, 72 h, AB12. Particulars: exposure time 72 h. It counts as cell-based, mouse. A general note: Formazan colour is commonly taken as a measure of viable cells.
Source text: (§1) Human malignant mesothelioma cancer cell lines JU77 and LO68 were obtained from Cell Bank Australia (Children's Medical Research Institute, Westmead, Australia). Mouse malignant mesothelioma cancer cell line AB12, human nonmalignant mesothelioma cancer cell line Met5A (mesothelial cells), mouse macrophage cell line J774 and human monocytic cell line THP-1 were obtained from American Type Culture Collection (ATCC) (Rockville, MD, USA). Human malignant mesothelioma cell lines VMC23 (epithelial), Meso82 (sarcomatous), Meso92 (biphasic), were kindly provided by Prof. Walter Berger (Medical University of Vienna). All cells except for J774 were cultured in RPMI and J774 cells were cultured in DMEM. Both types of media were supplemented with 10% FBS and 1% penicillin-streptomycin (10,000 U/mL). Cells were grown in tissue culture flasks (75 cm2 and 25 cm2, SPL Life Sciences Co., Ltd., Korea). All cell lines were grown at 37 °C in a humidified atmosphere of 95% air and 5% CO 2 and passaged when they reached 80–90% confluency. All Au stock solutions were prepared in 1% DMSO in the respected medium, ensuring that cell viability was not inhibited.
(§2) The cytotoxicity of compounds was determined using an MTT colorimetric test. The cells were harvested from culture flasks by trypsinization and seeded into Cellstar 96 -well microculture plates (Greiner Bio -One) at the seeding density of 6000 cells per well (6 × 10^4 cells/mL). After
(§3) the cells were allowed to resume exponential growth for 16 h, they were exposed to drugs at
(§4) different concentrations in media for 72 h. The drugs were diluted in a complete medium at the desired concentration added to each well (100 μL) and serially diluted in other wells. After exposure for 72 h, the media was replaced with MTT in media (5 mg/mL, 100 μL/well) and
(§5) incubated for an additional 50 min. Subsequently, the medium was aspirated, and the purple formazan crystals formed in viable cells were dissolved in DMSO (100 μL/well). Optical densities were measured at 570 nm using a BioTek Synergy H1 microplate and MultiskanTM SkyHigh plate readers. The quantity of viable cells was expressed in terms of treated/control (T/C) values in comparison to untreated control cells, and 50% inhibitory concentrations (IC 50) were calculated from concentration-effect curves by interpolation. An evaluation was based on means from at least three independent experiments, each comprising three replicat es per
For data set [4], the system named is AB12 cells phagocytosed by J774 macrophages. Put plainly: Phagocytosis assay, flow cytometry. It is filed as cell-based, mouse. Particulars: AB12 treated 100 min at 5 × IC50 (72 h), 16 h with J774 macrophages. As for the experimental part:
page 21: incubated for an additional 50 min. Subsequently, the medium was aspirated, and the purple formazan crystals formed in viable cells were dissolved in DMSO (100 μL/well). Optical densities were measured at 570 nm using a BioTek Synergy H1 microplate and MultiskanTM SkyHigh plate readers. The quantity of viable cells was expressed in terms of treated/control (T/C) values in comparison to untreated control cells, and 50% inhibitory concentrations (IC 50) were calculated from concentration-effect curves by interpolation. An evaluation was based on means from at least three independent experiments, each comprising three […] concentration level. For macrophage analyses, the acute monocytic leukemia -derived THP-1 cell line (ATCC) was used as a model. 1 × 104 THP-1 cells were seeded per well in 96-well plates in RPMI-1640 with 10% FCS and treated for 24 h with 75 nM phorbol 12-myristate 13-acetate (PMA, Sigma- Aldrich) to induce M0 macrophage differentiation. After the differentiation period, PMA was replaced by fresh culture medium to recover for 2h. Afterwards increasing concentrations of 1G, 5A, 5B and 5G were added for a 72-h continuous drug exposure assay. In parallel, the […] were allowed to attach for 24 h. Gold compounds were added to the cells as described for the THP-1 model above. After the incubation period of 72 h, cell viability was determined by an MTT-based assay (EU4U, Biomedica) following the instructions of the manufacturer. DMSO had not impact on the cell viability at the concentrations used. Flow cytometry experiments Phagocytosis assay […] with RPMI, centrifuged (300 × g, 5 min) and labelled with CellTracker Red CMTPX Dye (0.72 μM for 5 × 10^5 cells) at 37°C for 30 minutes in 1 ml of serum -free RPMI. Following S21 page 22: centrifugation of the cells (300 × g, 5 min), 5 ml of fresh RPMI was introduced, and the cells were seeded at a density of 5 x 10^5 cells per well into Cellstar 6-well plates (Greiner Bio-One) (1 ml per well). J774 macrophages (70-80% confluence in a T75 flask) were detached by scraping, centrifuged (300 × g, 5 min). The medium was substituted with 1 ml of DMEM containing CellTracker Green CMFDA (1 μM) and the J774 macrophages were stained at 37°C for 30 minutes. Following centrifugation of the J774 macrophages (300 × g, 5 min), 5 ml of fresh DMEM was introduced, and the macrophages were seeded into a 100 cm2 petri dish (SPL Life Sciences, Korea). After 24 h, the media in AB12 cells was replaced with 1 ml of fresh […] for 100 minutes. After removing the drug-containing media, the cells were trypsinized (0.5 ml), neutralized with 1 ml of RPMI, centrifuged (300 × g, 5 min) and counted. From each sample, […] cells into 6-well plates. AB12 cells and J774 macrophages were co-incubated for 16 h at 37°C and 5% CO2, detached by scraping, centrifuged (300 × g, 5 min), and the pellets were resuspended in PBS for immediate analysis using a CytoFLEX Flow Cytometer (Beckman Coulter, USA). The percentage of phagocytosis was determined by calculating the number of double-positive macrophages (Q2) over the total number of macrophages (Q2 + Q3). […] Annexin V/PI assay AB12 cells were seeded into Cellstar 6-well plates (Greiner Bio-One) at a density of 5 × 10^5 cells/well (1 ml per well). […] The medium was removed and cells were washed with PBS (2 × 1 mL). Afterwards the cells were […] S22
In general terms: In flow cytometry, cells or beads pass a laser one at a time.

Data set [5] relates to calreticulin (CRT) in AB12 cells. To be noted: AB12, 5 × IC50, 120 min.
Procedure: emission was detected at 525/40 nm for FITC (CRT).
Confocal microscopy experiments
AB12 cells were seeded into confocal dishes (Biosharp) at a density of 3 × 10^5 cells/dish (1
mL per dish). The cells were allowed to resume exponential growth for 16 h. Afterwards, the
cells were incubated with a fresh medium containing compounds at their respective 5 × IC50
concentrations for 2 h at 37°C. After the treatment, the dishes were washed with 1 ml of PBS,
fixed in 4% paraformaldehyde in PBS at r. t. for 20 min and washed twice with 1 mL of PBS.
The dishes were then incubated with CRT antibody conjugated with Alexa Fluor 488 (1:200 in
the dishes were incubated with Wheat Germ Agglutinin conjugated with Alexa Fluor 633 dye
(W21404, Invitrogen) at r. t. in darkness for 30 min, washed with 1 mL of PBS, stained with
propidium iodide (PI) for 10 min at r. t. in darkness and washed with 1 mL of PBS. Samples
were stored in 1 mL of PBS. The confocal images were acquired by Laser Confocal Scanning
Data set [6] has as its system patient-derived VMC23 cell line (epithelioid MPM). In words: MTT cytotoxicity assay, 72 h, VMC23. It is filed as cell-based, human. Particulars: exposure time 72 h.
Source text: as §1, §2, §3, §4, §5
In data set [7] the test system is patient-derived Meso92 cell line (biphasic MPM). Put plainly: MTT cytotoxicity assay, 72 h, Meso92. It counts as cell-based, human. To be noted: exposure time 72 h.
Source text: Cell lines and culture conditions
Mouse malignant mesothelioma cancer cell line AB12, human nonmalignant mesothelioma cancer cell line Met5A (mesothelial cells), mouse macrophage cell line J774 and human monocytic cell line THP-1 were obtained from American Type Culture Collection (ATCC) (Rockville, MD, USA). Human malignant mesothelioma cell lines VMC23 (epithelial), Meso82 (sarcomatous), Meso92 (biphasic), were kindly provided by Prof. Walter Berger (Medical University of Vienna). All cells except for J774 were cultured in RPMI and J774 cells were cultured in DMEM. Both types of media were supplemented with 10% FBS and 1% penicillin-streptomycin (10,000 U/mL). Cells were grown in tissue culture flasks (75 cm2 and 25 cm2, SPL Life Sciences Co., Ltd., Korea). All cell lines were grown at 37 °C in a humidified atmosphere of 95% air and 5% CO 2 and passaged when they reached 80–90% confluency. All Au stock solutions were prepared in 1% DMSO in the respected medium, ensuring that cell viability was not inhibited. The Au concentration in the stock solutions was confirmed through inductively coupled plasma optical emission spectrometry. The stock solution of pemetrexed (10 mM) was prepared in Milli -Q water.
Inhibition of c ell viability assay
as §2, §3, §4, §5
The test system of data set [8] is human malignant mesothelioma cell line JU77. Put plainly: MTT cytotoxicity assay, 72 h, JU77. It counts as cell-based. To be noted: exposure time 72 h.
Source text: as §1, §2, §3, §4, §5
Data set [9] has as its system human nonmalignant mesothelioma cell line Met5A. In words: MTT cytotoxicity assay, 72 h, Met5A. It counts as cell-based. Particulars: exposure time 72 h.
The subject of data set [10] is patient-derived Meso84 cell line (sarcomatoid MPM). Put plainly: MTT cytotoxicity assay, 72 h, Meso84. It counts as cell-based, human. Particulars: exposure time 72 h.
Source text: as §1, §2, §3, §4, §5
Data set [11] deals with human malignant mesothelioma cell line LO68. Put plainly: MTT cytotoxicity assay, 72 h, LO68. It is filed as cell-based. To be noted: exposure time 72 h.
Source text: as §1, §2, §3, §4, §5
The test system of data set [12] is calreticulin (CRT) in AB12 cells. In words: CRT detection, flow cytometry. It counts as cell-based, mouse. To be noted: AB12, 5 × IC50 (72 h), 120 min. As for the experimental part:
page 23: concentrations for 100 min at 37 °C. After the treatment, the supernatant was collected in 2 mL microtubes, centrifuged (300 × g, 5 min) and the media was removed. The adherent cells were then trypsinized with 500 μL of trypsin at 37 °C for 5 min. Next, 1 mL of medium was added to neutralize trypsin and the resulting cell suspension was combined with the supernatant. The wells were washed with 200 μL of PBS, which was also combined with the supernatant. The combined solutions were centrifuged (300 × g, 5 min), and the resulting pellets were washed with PBS (2 × 1 mL) and resuspended in 200 μL of Annexin V binding buffer. […] Cell death was evaluated by flow cytometry using a CytoFLEX Flow Cytometer equipped with a 488 nm laser and a 638 nm laser (Beckman Coulter, Brea, CA, USA). The cells were excited by the 488 nm laser, and fluorescence emissions were detected at 525/40 nm for FITC (Annexin V) and at 610/20 nm for ECD (PI). […] The percentage of necrosis was determined by calculating the sum of cells in Q1 and Q2. […] Next, cells were incubated with CRT antibody conjugated with AlexaFluor S23 page 24: 488 (62304S, Cell Signaling Technology) at 4 °C overnight, washed twice with PBS, reconstituted in 500 µL of PBS and analyzed by flow cytometry using a CytoFLEX Flow Cytometer equipped with a 488 nm laser and a 638 nm laser (Beckman Coulter, Brea, CA, USA). […]

Regarding `CCCC[N+](CCCC)=C1[S][Au-]2([S]1)[c]1ccccc1C(OC)c1cccc[n+]12.F[P-](F)(F)(F)(F)F` (racemic) [4C], the “mice that developed tumors after vaccination” value in [1] is given as “≈ 50%”. Moreover, the “hydrolysis over the 72-h period” value in data set [2] is “less than 10%”. Moreover, the “minor RP-HPLC peak, share of the total area after 24 h” value in [2] (24 h) amounted to 2%. In addition, the “minor RP-HPLC peak, share of the total area after 72 h” value in data set [2] (72 h) came to 8%. Also, the 50% inhibitory concentration (IC50) – broadly, the concentration that gives 50% inhibition – in data set [3] turned out to be 3.1 ± 0.4 µM; in [6] it was 2.5 ± 0.2 µM; in data set [7], 4.5 ± 0.8 µM; in data set [8] it was 1.6 ± 0.1 µM; in [9], 3 ± 0.7 µM; in [10] it was 2.7 ± 0.8 µM. In data set [11], this compound had a concentration for half-maximal inhibition (IC50) of 3.1 ± 0.3 µM. Moreover, in data set [4], the phagocytosis rate is recorded as 37% ± 12%. Also, the “CRT translocation, confocal microscopy” value in [5] is “translocation of CRT to the plasma membrane”.
Regarding `N.N.[Cl][Pt][Cl]` [Cisplatin, cisplatin, reference compound], the “CRT expression (in words)” value in data set [12] was “no changes in CRT expression”. Also, the IC50 worked out at 4.5 ± 0.8 µM in data set [3]; 3.6 ± 1 µM in data set [6]; 4 ± 0.9 µM in data set [7]; 4.2 ± 0.5 µM in data set [8]; 2 ± 0.5 µM in data set [9]; 17 ± 2 µM in data set [10]. In data set [11], the half-inhibitory concentration (IC50) amounted to 20 ± 6 µM. Also, in data set [4], the “phagocytosis / ICD response (in words)” value was “failed to initiate any ICD response”.
Consider `COc1cccc2c1C(=O)c1c(O)c3c(c(O)c1C2=O)C[C@@](O)(C(=O)CO)C[C@@H]3O[C@H]1C[C@H](N)[C@H](O)[C@H](C)O1` [doxorubicin], for which the chromatographic logP – broadly, a lipophilicity value derived from retention on a column – in “physchem” stood at 0.68.
